Laboratory results published in patent EP1420018A1, “Pyrido[1,2-a]benzimidazole derivatives useful in treating central nervous system disorders” (Ortho-McNeil Pharmaceutical, Inc., priority 1996, dated 1998).
Counter-ions that a name gives are not always drawn. Like-named read-outs stand apart in the source and are kept apart here.

Key:
[1] = system: metrazol-induced convulsions; assay: Suppression of Metrazol-Induced Convulsions in Adult Male Mice; assay type: in vivo; conditions: Mus musculus, ip
Description: Assay to Determine the Suppression of Metrazol-Induced Convulsions in Adult Male Mice
Male CD1 mice, were fasted at least 16 hours, were divided into equal groups and test compounds or vehicle were administered parenterally. Water was not withheld except during the period of observations. […] Metrazol was dissolved in 0.9% sodium chloride solution, and its dose volume was 10 ml/kg. Animals were housed individually for observation of clonic convulsions, tonic convulsions and death for a period of 30 min. […] The biological assay was considered to be valid if the effects of a known anticonvulsant (positive control) were detected, within the same experiment. Activity was reported as percent reduction of clonic convulsions from the vehicle group.

[2] = system: Anxiety in the Adult Male Rat; assay: Suppression of Anxiety in the Adult Male Rat (rat conflict test); assay type: in vivo, rats; conditions: for minimal effective dose: Rattus norvegicus
Description: Assay to Measure the Suppression of Anxiety in the Adult Male Rat
Male rats were deprived of water for 48 hours and were deprived of food for 24 hours prior to testing. After the first 24 hours of water deprivation, they were placed in the conflict chamber for a training period; wherein, they were allowed 200 unpunished licks from a bottle containing tap water. The experiment was run the next day. At the expected time of peak activity, the animals were placed in the chamber and allowed access to tap water. […] Their first lick initiates a 3-min test session. Subsequently, every 20th lick was punished by a 0.2-s shock delivered via the stainless-steel drinking-tube.
The Wilcoxon rank-sum test (Mann-Whitney U-test) was used to test for an increase (p<0.05, 1-tailed) in the median number of shocks in drug-treated groups, compared to a concurrently run vehicle-treated group. The biological assay is considered to be valid if the effects of a known anxiolytic (positive control) are detected, within the same experiment.

[3] = system: metrazol-induced convulsions; assay: Suppression of Metrazol-Induced Convulsions in Adult Male Mice; assay type: in vivo; conditions: for ED50: Mus musculus, po
[4] = target: benzodiazepine site of the GABA-A receptor; assay: Benzodiazepine Receptor Binding Assay (inhibition of 3H-flunitrazepam binding); conditions: read-out: GABAA Receptor Binding IC50
[5] = po, rat, po, read-out: Rat Conflict (MED, mg/kg) po
[6] = ip, rat, ip, read-out: Rat Conflict (MED, mg/kg) ip
[7] = block of clonic convulsions, male CD1 mice, >30 = active dose not determined
[8] = ip, minimum effective dose, increase in shocks tolerated, >10 = active dose not determined, read-out: Rat Conflict (MED, mg/kg) ip
[9] = po, minimum effective dose, increase in shocks tolerated, >10 = active dose not determined, read-out: Rat Conflict (MED, mg/kg) po
[10] = inhibition of 3H-flunitrazepam (ca. 3 nM) binding to membranes, 25°C, over 10,000 = not active

## COCCN1C2=C(C(=O)Nc3ccccc3F)C(=O)CCN2c2c(O)cccc21 [Compound 108]
[1]; mouse
  ED50: > 1 mg/kg
[2]; [5]
  minimal effective dose: > 10 mg/kg
[3]; mouse
  ED50: ≥ 30 mg/kg
[4]
  IC50: 10.4 nM

## CCOCN1C2=C(C(=O)Nc3ccccc3F)C(=O)CCN2c2ccc(F)cc21 [Compound 172]
[1]; mouse
  ED50: 0.01 mg/kg
[2]; [6]
  minimal effective dose: ≤ 10 mg/kg
[2]; [5]
  minimal effective dose: 0.3 mg/kg
[3]; mouse
  ED50: 0.1 mg/kg
[4]
  IC50: 0.14 nM

## O=C1CCN2C(=C1C(=O)Nc1ccccc1F)N(CCN1CCOCC1)c1cc(F)ccc12 [Compound 88]
[1]; [7]
  ED50: 0.1 mg/kg
[2]; [8]
  minimal effective dose: > 10 mg/kg
[2]; [9]
  minimal effective dose: 10 mg/kg
[3]; [7]
  ED50: 7 mg/kg
[4]; [10]
  IC50: 3.67 nM

## CCOCN1C2=C(C(=O)Nc3c(F)cccc3F)C(=O)CCN2c2ccc(F)cc21 [Compound 173]
[1]; mouse
  ED50: 1 mg/kg
[2]; [6]
  minimal effective dose: > 10 mg/kg
[2]; [5]
  minimal effective dose: > 10 mg/kg
[3]; mouse
  ED50: 3 mg/kg
[4]
  IC50: 0.65 nM

## CN(C)CCN1C2=C(C(=O)Nc3ccccc3F)C(=O)CCN2c2cccc(F)c21 [Compound 45]
[1]; [7]
  ED50: 1 mg/kg
[2]; [8]
  minimal effective dose: > 10 mg/kg
[2]; [9]
  minimal effective dose: 10 mg/kg
[3]; [7]
  ED50: 3 to 10 mg/kg
[4]; [10]
  IC50: 40.6 nM

## CCOCN1C2=C(C(=O)Nc3ccc(S(C)(=O)=O)s3)C(=O)CCN2c2ccc(F)cc21 [Compound 120]
[1]; mouse
  ED50: > 1 mg/kg
[2]; [5]
  minimal effective dose: > 10 mg/kg
[3]; mouse
  ED50: ~3 mg/kg
[4]
  IC50: 35.1 nM

## CCOCCN1C2=C(C(=O)Nc3ccc(S(C)(=O)=O)s3)C(=O)CCN2c2ccc(F)cc21 [Compound 121]
[1]; mouse
  ED50: > 1 mg/kg
[2]; [5]
  minimal effective dose: > 10 mg/kg
[3]; mouse
  ED50: > 30 mg/kg
[4]
  IC50: 84 nM

## CCOCN1C2=C(C(=O)Nc3cc4ccccc4s3)C(=O)CCN2c2ccccc21 [Compound 116]
[1]; mouse
  ED50: > 1 mg/kg
[2]; [5]
  minimal effective dose: > 10 mg/kg
[3]; mouse
  ED50: > 30 mg/kg
[4]
  IC50: 100 nM

## CN(C)CCN1C2=C(C(=O)Nc3cccs3)C(=O)CCN2c2ccc(F)cc21 [Compound 49]
[1]; mouse
  ED50: 3 mg/kg
[2]; [6]
  minimal effective dose: > 10 mg/kg
[2]; [5]
  minimal effective dose: ~10 mg/kg
[3]; mouse
  ED50: ~5 mg/kg
[4]
  IC50: 152 nM

## CCOCCN1C2=C(C(=O)Nc3ccc(C)s3)C(=O)CCN2c2ccc(F)cc21 [Compound 131]
[1]; mouse
  ED50: < 1 mg/kg
[2]; [5]
  minimal effective dose: ~1 mg/kg
[3]; mouse
  ED50: ~0.6 mg/kg
[4]
  IC50: 1.03 nM

## COCCN1C2=C(C(=O)Nc3ccc(C)s3)C(=O)CCN2c2ccccc21 [Compound 142]
[1]; mouse
  ED50: < 1 mg/kg
[2]; [5]
  minimal effective dose: ~1 mg/kg
[3]; mouse
  ED50: 0.7 mg/kg
[4]
  IC50: 3.17 nM

## CN(C)CCN1C2=C(C(=O)Nc3c(F)cccc3F)C(=O)CCN2c2ccc(F)cc21 [Compound 73]
[1]; mouse
  ED50: > 10 mg/kg
[2]; [6]
  minimal effective dose: > 10 mg/kg
[3]; mouse
  ED50: > 30 mg/kg
[4]
  IC50: 32.1 nM

## CN(CCN1C2=C(C(=O)Nc3c(F)cccc3F)C(=O)CCN2c2ccc(F)cc21)Cc1ccc(F)cc1 [Compound 65]
[1]; mouse
  ED50: > 10 mg/kg
[2]; [6]
  minimal effective dose: > 10 mg/kg
[3]; mouse
  ED50: > 30 mg/kg
[4]
  IC50: 11 nM

## CCN(CC)CCN1C2=C(C(=O)Nc3ccccc3F)C(=O)CCN2c2ccc(F)cc21 [Compound 71]
[1]; mouse
  ED50: 2 mg/kg
[2]; [6]
  minimal effective dose: < 10 mg/kg
[2]; [5]
  minimal effective dose: > 10 mg/kg
[3]; mouse
  ED50: 10 mg/kg
[4]
  IC50: 74.5 nM

## O=C1CCN2C(=C1C(=O)Nc1ccccc1F)N(CCNC(=O)C(F)(F)F)c1cc(F)ccc12 [Compound 51]
[1]; mouse
  ED50: 0.3 mg/kg
[2]; [6]
  minimal effective dose: ~10 mg/kg
[2]; [5]
  minimal effective dose: > 10 mg/kg
[3]; mouse
  ED50: 1 mg/kg
[4]
  IC50: 0.51 nM

## CC(C)OCCN1C2=C(C(=O)Nc3ccccc3F)C(=O)CCN2c2ccc(F)cc21 [Compound 150]
[1]; mouse
  ED50: < 1 mg/kg
[2]; [5]
  minimal effective dose: 10 mg/kg
[3]; mouse
  ED50: 1 mg/kg
[4]
  IC50: 0.32 nM

## COCCN1C2=C(C(=O)Nc3nccs3)C(=O)CCN2c2ccc(F)cc21 [Compound 140]
[1]; mouse
  ED50: < 1 mg/kg
[2]; rat, po
  Rat Conflict (MED, mg/kg) po: >10 mg/kg
[3]; mouse
  Mouse Metrazol (ED50, mg/kg) po: 0.3 mg/kg
[4]
  IC50: 3.97 nM

## CNCCN1C2=C(C(=O)Nc3ccccc3F)C(=O)CCN2c2ccc(F)cc21 [Compound 59, 7-Fluoro-1,2-dihydro-5-[2-(methylamino)ethyl]-3-oxo-N-(2-fluorophenyl)pyrido[1,2-a]benzimidazole-4-carboxamide hydrochloride hydrate (4:4:5)]
[1]; mouse
  ED50: 3 mg/kg
[2]; [6]
  minimal effective dose: 10 mg/kg
[2]; [5]
  minimal effective dose: 1 mg/kg
[3]; mouse
  ED50: 10 mg/kg
[4]
  IC50: 16 nM

## O=C1CCN2C(=C1C(=O)Nc1ccccc1F)N(CCNS(=O)(=O)c1ccccc1)c1cc(F)ccc12 [Compound 44]
[1]; [7]
  ED50: ≤ 1 mg/kg
[2]; [8]
  minimal effective dose: > 10 mg/kg
[2]; [9]
  minimal effective dose: > 10 mg/kg
[3]; [7]
  ED50: < 30 mg/kg
[4]; [10]
  IC50: 10.1 nM

## CC(C)NC(=O)NCCN1C2=C(C(=O)Nc3ccccc3F)C(=O)CCN2c2ccc(F)cc21 [Compound 79]
[1]; mouse
  ED50: > 1 mg/kg
[2]; [5]
  minimal effective dose: > 10 mg/kg
[3]; mouse
  ED50: > 30 mg/kg
[4]
  IC50: 10.5 nM

## COCCN1C2=C(C(=O)NC3CCCCC3)C(=O)CCN2c2ccc(F)cc21 [Compound 110]
[1]; mouse
  ED50: ≥ 1 mg/kg
[2]; [5]
  minimal effective dose: 10 mg/kg
[3]; mouse
  ED50: ≥ 30 mg/kg
[4]
  IC50: 19.1 nM

## COCCN1C2=C(C(=O)Nc3ccccc3F)C(=O)CCN2c2ccccc21 [Compound 153]
[1]; mouse
  ED50: < 1 mg/kg
[2]; [5]
  minimal effective dose: ≤ 1 mg/kg
[3]; mouse
  ED50: 1 mg/kg
[4]
  IC50: 1.3 nM

## NCCN1C2=C(C(=O)Nc3ccccc3F)C(=O)CCN2c2ccc(F)cc21 [Compound 57]
[1]; mouse
  ED50: 0.3 mg/kg
[2]; [6]
  minimal effective dose: ~10 mg/kg
[2]; [5]
  minimal effective dose: 10 mg/kg
[3]; mouse
  ED50: 10 mg/kg
[4]
  IC50: 5.13 nM

## COCCN1C2=C(C(=O)Nc3cccs3)C(=O)CCN2c2ccc(F)cc21 [Compound 139]
[1]; mouse
  ED50: < 1 mg/kg
[2]; [5]
  minimal effective dose: ~1 mg/kg
[3]; mouse
  ED50: ~0.2 mg/kg
[4]
  IC50: 1.79 nM

## CCOCN1C2=C(C(=O)Nc3ccc(Cl)s3)C(=O)CCN2c2ccc(F)cc21 [Compound 134]
[1]; mouse
  ED50: < 1 mg/kg
[2]; [5]
  minimal effective dose: > 10 mg/kg
[3]; mouse
  ED50: 2 mg/kg
[4]
  IC50: 1.81 nM

## CN(C)c1ccc(CCN2C3=C(C(=O)Nc4ccccc4F)C(=O)CCN3c3ccc(F)cc32)cc1 [Compound 84]
[1]; mouse
  ED50: 1 mg/kg
[2]; [6]
  minimal effective dose: > 10 mg/kg
[3]; mouse
  ED50: < 30 mg/kg
[4]
  IC50: 8.52 nM

## COCCN1C2=C(C(=O)Nc3ccccc3F)C(=O)CCN2c2ccc(F)cc21 [Compound 163]
[1]; mouse
  ED50: 0.01 mg/kg
[2]; [6]
  minimal effective dose: < 10 mg/kg
[2]; [5]
  minimal effective dose: 0.1 mg/kg
[3]; mouse
  ED50: 0.2 mg/kg
[4]
  IC50: 0.61 nM

## COCCN1C2=C(C(=O)NC3CC3)C(=O)CCN2c2ccc(F)cc21 [Compound 118]
[1]; mouse
  ED50: < 1 mg/kg
[2]; [5]
  minimal effective dose: 10 mg/kg
[3]; mouse
  ED50: ~3 mg/kg
[4]
  IC50: 3.68 nM

## CC(C)N(CCN1C2=C(C(=O)Nc3c(F)cccc3F)C(=O)CCN2c2ccc(F)cc21)C(C)C [Compound 68]
[1]; mouse
  ED50: > 10 mg/kg
[2]; [6]
  minimal effective dose: 10 mg/kg
[3]; mouse
  ED50: > 30 mg/kg
[4]
  IC50: 44.6 nM
